Converted amounts (≈) assume the structure as drawn. Values belong to the molecule of their own block, whether it stands above or below them.
Key:
[1] = test system: Human rhinovirus sp.; test: Effective concentration against HRV-14; assay type: functional, organism-based
[2] = test system: Human rhinovirus sp.; test: Effective concentration against HRV-2; assay type: functional, organism-based
[3] = test system: Human rhinovirus sp.; test: Effective concentration against HRV serotype 59 (assay was run at least six times); assay type: functional, organism-based
[4] = test system: Human rhinovirus sp.; test: Effective concentration against HRV serotype 29 (assay was run at least six times); assay type: functional, organism-based
[5] = test system: Human rhinovirus sp.; test: Effective concentration against HRV serotype 85 (assay was run at least six times); assay type: functional, organism-based
[6] = test system: Human rhinovirus sp.; test: Effective concentration against HRV serotype 51 (assay was run at least six times); assay type: functional, organism-based
[7] = test system: Human rhinovirus sp.; test: Effective concentration against HRV serotype 70 (assay was run at least six times); assay type: functional, organism-based
[8] = test system: Human rhinovirus sp.; test: Effective concentration against HRV serotype 9 (assay was run at least six times); assay type: functional, organism-based
[9] = test system: Human rhinovirus sp.; test: Effective concentration against HRV serotype 45 (assay was run at least six times); assay type: functional, organism-based
[10] = test system: Human rhinovirus sp.; test: Effective concentration against HRV serotype 16 (assay was run at least six times); assay type: functional, organism-based
[11] = test system: Human rhinovirus sp.; test: Effective concentration against HRV serotype 86 (assay was run at least six times); assay type: functional, organism-based
[12] = test system: Human rhinovirus sp.; test: Effective concentration against HRV serotype 63 (assay was run at least six times); assay type: functional, organism-based
[13] = test system: Human rhinovirus sp.; test: Effective concentration against HRV serotype 89 (assay was run at least six times); assay type: functional, organism-based
[14] = test system: Human rhinovirus sp.; test: Effective concentration against HRV serotype 14 (assay was run at least six times); assay type: functional, organism-based
[15] = test system: Human rhinovirus sp.; test: Effective concentration against HRV serotype 72 (assay was run at least six times); assay type: functional, organism-based
[16] = test system: Human rhinovirus sp.; test: Effective concentration against HRV serotype 15 (assay was run at least six times); assay type: functional, organism-based
[17] = test system: Human rhinovirus sp.; test: Effective concentration against HRV serotype 39 (assay was run at least six times); assay type: functional, organism-based
[18] = test system: Human rhinovirus sp.; test: Effective concentration against HRV serotype 2 (assay was run at least six times); assay type: functional, organism-based
[19] = test system: Human rhinovirus sp.; test: Median effective concentration against HRV serotypes; Number of serotypes 16; assay type: functional, organism-based
[20] = test system: Human rhinovirus sp.; test: Effective concentration against HRV-16; assay type: functional, organism-based
[21] = test system: Human rhinovirus sp.; test: Percent inhibition of HRV strains at a concentration of 0.064 ug/mL; no. of strains=100; assay type: functional
[22] = test system: Human rhinovirus sp.; test: Effective concentration against HRV serotype 45 (assay was run for 3 times); assay type: functional, organism-based

SMILES: Cc1ccc(N2CCC(CCOc3ccc4nc(C)oc4c3)CC2)nn1
EC50 [1]: > 0.5 µg/mL
EC50 [2]: > 0.5 µg/mL

SMILES: CSc1nc2cc(OCCC3CCN(c4ccc(C)nn4)CC3)ccc2o1
EC50 [1]: 0.047 µg/mL (≈ 0.122 µM)
EC50 [2]: 0.099 µg/mL (≈ 0.257 µM)

SMILES: Cc1cc(CCCOc2c(C)cc(-c3noc(C(F)(F)F)n3)cc2C)on1 [PLECONARIL]
EC50 [3]: 0.387 µg/mL (≈ 1.02 µM)
EC50 [4]: 0.0454 µg/mL (≈ 0.119 µM)
EC50 [5]: 0.034 µg/mL (≈ 0.0892 µM)
EC50 [6]: 0.0304 µg/mL (≈ 0.0797 µM)
EC50 [7]: 0.0539 µg/mL (≈ 0.141 µM)
EC50 [8]: 0.0372 µg/mL (≈ 0.0974 µM)
EC50 [9]: 1.91 µg/mL (≈ 5 µM)
EC50 [10]: 0.108 µg/mL (≈ 0.283 µM)
EC50 [11]: 0.07 µg/mL (≈ 0.184 µM)
EC50 [12]: 0.0623 µg/mL (≈ 0.163 µM)
EC50 [13]: 0.0293 µg/mL (≈ 0.0769 µM)
EC50 [14]: 0.0343 µg/mL (≈ 0.09 µM)
EC50 [15]: 0.469 µg/mL (≈ 1.23 µM)
EC50 [16]: 0.0698 µg/mL (≈ 0.183 µM)
EC50 [17]: 0.0449 µg/mL (≈ 0.118 µM)
EC50 [18]: 0.0265 µg/mL (≈ 0.0694 µM)
EC50 [19]: 0.0496 µg/mL (≈ 0.13 µM)

SMILES: CCCCc1nc2cc(OCCC3CCN(c4ccc(C)nn4)CC3)ccc2o1
EC50 [1]: 0.082 µg/mL (≈ 0.208 µM)
EC50 [2]: 0.013 µg/mL (≈ 0.033 µM)

SMILES: CCSc1nc2ccc(OCCC3CCN(c4ccc(C)nn4)CC3)cc2n1C
EC50 [1]: > 0.25 µg/mL
EC50 [2]: 0.086 µg/mL (≈ 0.209 µM)

SMILES: Cc1ccc(N2CCC(CCOc3ccc4oc(C)nc4c3)CC2)nn1
EC50 [1]: > 0.5 µg/mL
EC50 [2]: > 0.5 µg/mL

SMILES: CCSc1nc2cc(OCCC3CCN(c4ccc(C)nn4)CC3)ccc2n1C
EC50 [1]: 0.169 µg/mL (≈ 0.411 µM)
EC50 [2]: 0.102 µg/mL (≈ 0.248 µM)

SMILES: CCOC(=O)c1ccc(OCCC2CCN(c3ccc(C)nn3)CC2)cc1 [PIRODAVIR]
EC50 [3]: 0.00437 µg/mL (≈ 0.0118 µM)
EC50 [4]: 0.00374 µg/mL (≈ 0.0101 µM)
EC50 [5]: 0.00472 µg/mL (≈ 0.0128 µM)
EC50 [6]: 0.00521 µg/mL (≈ 0.0141 µM)
EC50 [7]: 0.00214 µg/mL (≈ 0.00579 µM)
EC50 [8]: 0.00205 µg/mL (≈ 0.00555 µM)
EC50 [9]: > 5 µg/mL
EC50 [10]: 0.0152 µg/mL (≈ 0.0412 µM)
EC50 [11]: 0.00956 µg/mL (≈ 0.0259 µM)
inhibition at 0.064 µg/mL [21]: 80%
EC50 [12]: 0.00083 µg/mL (≈ 0.00225 µM)
EC50 [13]: 0.0057 µg/mL (≈ 0.0154 µM)
EC50 [14]: 0.00365 µg/mL (≈ 0.00988 µM)
EC50 [15]: 0.0348 µg/mL (≈ 0.0941 µM)
EC50 [16]: 0.00792 µg/mL (≈ 0.0214 µM)
EC50 [17]: 0.0018 µg/mL (≈ 0.00487 µM)
EC50 [18]: 0.00277 µg/mL (≈ 0.0075 µM)
EC50 [19]: 0.00454 µg/mL (≈ 0.0123 µM)

SMILES: CCCOc1nc2cc(OCCC3CCN(c4ccc(C)nn4)CC3)ccc2o1
EC50 [1]: 0.02 µg/mL (≈ 0.0504 µM)
EC50 [2]: 0.002 µg/mL (≈ 0.00504 µM)

SMILES: CCSc1nc2ccc(OCCC3CCN(c4ccc(C)nn4)CC3)cc2o1
EC50 [1]: 0.05 µg/mL (≈ 0.125 µM)
EC50 [2]: 0.004 µg/mL (≈ 0.01 µM)

SMILES: CCCc1nc2cc(OCCC3CCN(c4ccc(C)nn4)CC3)ccc2o1
EC50 [1]: 0.028 µg/mL (≈ 0.0736 µM)
EC50 [2]: 0.075 µg/mL (≈ 0.197 µM)

SMILES: CCSc1nc2cc(OCCC3CCN(c4ccc(C)nn4)CC3)ccc2o1
EC50 [1]: 0.006 µg/mL (≈ 0.0151 µM)
EC50 [2]: 0.002 µg/mL (≈ 0.00502 µM)

SMILES: COc1nc2cc(OCCC3CCN(c4ccc(C)nn4)CC3)ccc2o1
EC50 [1]: 0.099 µg/mL (≈ 0.269 µM)
EC50 [2]: 0.159 µg/mL (≈ 0.432 µM)

Further lines, results first:

EC50 [1]: 0.13 µg/mL (≈ 0.355 µM)
EC50 [2]: 0.144 µg/mL (≈ 0.393 µM)
SMILES: CCc1nc2cc(OCCC3CCN(c4ccc(C)nn4)CC3)ccc2o1

EC50 [1]: 0.049 µg/mL (≈ 0.118 µM)
EC50 [2]: 0.165 µg/mL (≈ 0.398 µM)
SMILES: CCSc1nc2ccc(OCCC3CCN(c4ccc(C)nn4)CC3)cc2s1

EC50 [1]: 0.041 µg/mL (≈ 0.0994 µM)
EC50 [2]: 0.166 µg/mL (≈ 0.402 µM)
SMILES: CCCOc1nc2ccc(OCCC3CCN(c4ccc(C)nn4)CC3)cc2s1

EC50 [2]: 0.045 µg/mL (≈ 0.118 µM)
EC50 [20]: 0.023 µg/mL (≈ 0.0601 µM)
SMILES: CCOc1nc2ccc(OCCC3CCN(c4ccc(C)nn4)CC3)cc2o1

EC50 [1]: 0.014 µg/mL (≈ 0.0351 µM)
EC50 [2]: 0.104 µg/mL (≈ 0.261 µM)
SMILES: CCOc1nc2ccc(OCCC3CCN(c4ccc(C)nn4)CC3)cc2s1

EC50 [3]: 0.00226 µg/mL (≈ 0.00591 µM)
EC50 [4]: 0.00728 µg/mL (≈ 0.019 µM)
EC50 [1]: 0.007 µg/mL (≈ 0.0183 µM)
EC50 [22]: > 0.25 µg/mL
EC50 [2]: 0.003 µg/mL (≈ 0.00784 µM)
EC50 [5]: 0.00078 µg/mL (≈ 0.00204 µM)
EC50 [6]: 0.00345 µg/mL (≈ 0.00902 µM)
EC50 [7]: 0.0152 µg/mL (≈ 0.0398 µM)
EC50 [8]: 0.0012 µg/mL (≈ 0.00314 µM)
EC50 [10]: 0.00772 µg/mL (≈ 0.0202 µM)
EC50 [11]: 0.00874 µg/mL (≈ 0.0229 µM)
EC50 [12]: 0.0003 µg/mL (≈ 0.000784 µM)
EC50 [13]: 0.00151 µg/mL (≈ 0.00395 µM)
EC50 [14]: 0.00432 µg/mL (≈ 0.0113 µM)
EC50 [15]: 0.142 µg/mL (≈ 0.372 µM)
EC50 [16]: 0.00433 µg/mL (≈ 0.0113 µM)
EC50 [17]: 0.00053 µg/mL (≈ 0.00139 µM)
EC50 [18]: 0.00116 µg/mL (≈ 0.00303 µM)
EC50 [19]: 0.00388 µg/mL (≈ 0.0101 µM)
SMILES: CCOc1nc2cc(OCCC3CCN(c4ccc(C)nn4)CC3)ccc2o1

EC50 [1]: 0.006 µg/mL (≈ 0.0151 µM)
EC50 [2]: 0.007 µg/mL (≈ 0.0176 µM)
SMILES: CCOc1nc2cc(OCCC3CCN(c4ccc(C)nn4)CC3)ccc2s1

From ChEMBL document CHEMBL1144369, “2-Ethoxybenzoxazole as a bioisosteric replacement of an ethyl benzoate group in a human rhinovirus (HRV) capsid binder” (Bioorg Med Chem Lett, 2005)
